From EP0351720B1, “Use of substituted 3,4-dihydro-2H-benzopyrans as medicaments against obstructive disorders of the lung” (HOECHST AKTIENGESELLSCHAFT, priority 1988, dated 1990)

Test system: Histamin-induzierte Bronchokonstriktion
Experiment: Influence on histamine-induced bronchoconstriction in anaesthetised, ventilated guinea pigs (modified Konzett-Rössler method), test substance given as aerosol
Type: in vivo, Meerschweinchen
Conditions: for % Hemmung der Histamin-induzierten Bronchokonstriktion: n = 6, change vs control
Description: a) Beeinflussung von Atemwegsstörungen Einfluß auf die histamin-induzierte Bronchokonstriktion am Meerschweinchen
Albino-Meerschweinchen beiderlei Geschlechts mit einem Gewicht zwischen 450 und 550 g wurden mit 60 mg/kg Pentobarbital i.p. narkotisiert. Nach Tracheotomie wurden sie mit einer Starlingpumpe (Fa. Braun, Melsungen) beatmet. Das Atemvolumen wurde so gewählt, daß die Lungen ausgiebig belüftet wurden. Der Beatmungsdruck wurde mit Hilfe einer Wassersäule auf 80 mm H₂O eingestellt (Rosenthal und Dervinis). Die Atemfrequenz betrug 30 Atemzüge/min. Ein Überschuß an verfügbarer Atemluft kann durch einen Nebenweg im Einatemschlauch zu einer als Wasser-Überdruckventil geschalteten Waschflasche gelangen. Wird von der Starling-Pumpe durch den Einatemschlauch Luft in die Lunge geblasen, so füllt sich diese so lange, bis der Druck in dem System den durch die Höhe der Wassersäule eingestellten Wert (80 mm H₂O) erreicht hat. Die noch weiter zuströmende Luft fließt durch das Überdruckventil in die Waschflasche. Dieser Luftüberschuß, der nach Überschreiten des eingestellten Drucks in die Flasche entweicht, wird mit Hilfe eines Pistonrekorders gemessen und gilt als Maß für eine Veränderung des Atemwiderstands. Die Messung erfolgte in einer von der ursprünglichen Konzett-Rössler-Methode leicht modifizierten Weise, indem der Pistonrekorder durch ein Staudruckrohr nach Fleisch (Typ 0000) ersetzt wurde. Der auftretende Druckunterschled wurde mit einem Differenzdruckwandler Statham PM 97 TC erfaßt. Zur Aufzeichnung der Meßwerte diente ein Mehrfachkanalschreiber der Fa. Hellige.
Die Testsubstanzen werden als Aerosol mit Hilfe eines Ultraschallverneblers (Monaghan M 650) verabreicht. Die Verneblerkammer wird in den Einatemschlauch der Atempumpe zwischengeschaltet und den Tieren gestattet, das Aerosol 1 min lang einzuatmen. Das zu vernebelnde Volumen beträgt 0,02 ml/min.
Vernebelt wird eine physiologische Kochsalzlösung, der die zu prüfende Substanz in Form einer Lösung in Propandiol zugesetzt wird.
In einem Kontrollversuch wird sichergestellt, daß das Lösemittel Propandiol/physiologische Kochsalzlösung keine Eigenwirkung besitzt.
Eine Bronchokonstriktion wird durch Gaben von Histamindihydrochlorid (6 - 12 »g/kg i.v.) induziert. Die Injektion erfolgt durch einen in die V. jugularis eingeführten Katheter. Die Dosierung wird so gewählt, daß ein respiratorischer "Überfluß" von 60 % des angebotenen Atemvolumens während der Histamin-induzierten Bronchokonstriktion auftritt. Die Histamingaben erfolgen in 5-Minuten-Intervallen. Nach mindestens 3 gut reproduzierbaren Bronchokonstriktionen werden die Testsubstanzen als Aerosol 1 min lang verabreicht und nach einer Einwirkungszeit von 2 min erneut die Bronchokonstriktion induziert und in 5-Minuten-Intervallen wiederholt. […]

Compound: CC1(C)Oc2ccc(S(=O)(=O)c3ccccc3)cc2C(N2CCCC2=O)C1O (single isomer, unassigned; (+)) [Beispiel 5a, (+)-3,4-Dihydro-2,2-dimethyl-6-phenylsulfonyl-4-(2-oxo-1-pyrrolidinyl)-2H-benzo[b]pyran-3-ol]
- ED50 (Cavia porcellus, inhaled or nasal, aerosol, determined by linear regression of the % inhibition results, read-out: ID₅₀): 4.39 µg/kg
- % Hemmung der Histamin-induzierten Bronchokonstriktion (Dosis 1 »g/kg as aerosol for 1 min): 14 ± 4%
- % Hemmung der Histamin-induzierten Bronchokonstriktion (Dosis 3 »g/kg as aerosol for 1 min): 35 ± 4%
- % Hemmung der Histamin-induzierten Bronchokonstriktion (Dosis 10 »g/kg as aerosol for 1 min): 77 ± 7%
